Laboratory results reported in patent US8569361B1, “Aliphatic amino acid biosynthesis inhibitors and a method of synthesizing the same” (priority 2012, dated 2013).
≈ marks a conversion by molar mass, not a printed value.

Key:
[1] = test system: yeast cells; test: Reversal assay: amino acids/metabolites reversing the antifungal activity at MIC level; format: cell-based, Saccharomyces cerevisiae
Protocol: Performing reversal assay: The reversal assay according to the embodiments herein is performed by the following steps in general: First the yeast strain is grown in presence of minimum inhibitory concentrations of the compounds to be tested. Then different concentrations of amino acids or metabolite intermediates are added to reverse the inhibitory effect of the test compounds. Then again the growth is checked and the minimum concentration of the metabolite or amino acids required for reversing the inhibitory effect is determined.
An experiment was designed for finding the metabolite that reverses the antifungal activity of the test compound.
With respect to FIG. 3, a cell suspension containing 1.5×10^5 yeast/ml was prepared in RPMI medium (1.2×) enriched by 2% glucose. […] 80 μl of this suspension was added to each well of a 96 well micro plate in the second row. Subsequently, two fold dilutions of reversing metabolite were prepared in the first row of the same microplate and 20 μl of each dilution was added to the related well of the second row. The plate was incubated at 30° C. overnight. Following an overnight incubation, the plate was checked for any visible growth of the strain. In case of any growth, the reversing metabolite was considered for further analysis.
In this test, all the amino acids, nucleic acids and intermediate metabolites of citric acid cycle were tested separately.
For all the compounds the mixture of mediators was evaluated. After observing that the compound was reversed, each of the mediating materials was tested separately. Reversal assay test has been done for all of the amino acids like glycine, alanine, leucine, isoleucine and valine.
Row G indicates a compound B in the absence of amino acids and cells. Row H is control cell.

[2] = test system: ILV3; test: Semi-quantitative RT-PCR expression analysis of ilv3; format: cell-based, Saccharomyces cerevisiae BY4741; conditions: sub-lethal dose, 4 hours treatment; actin loading control
Protocol: (§1) A semi quantitative RT-PCR analysis was used to investigate any possible effect of new antifungal compounds on the expression level of candidate gene targets.
(§2) The RNA samples were prepared by using a commercial kit i.e. RNA easy mini kit, QIAGEN, Germany. A beads cell disrupter i.e. Micro Smash™, Tomy, Japan was used during the cell lysis process. All RNA preparation steps were performed according to the manufacturer's instructions.
(§3) 1 microgram of total RNA was used in cDNA synthesis reaction. A commercial kit i.e. first strand cDNA Synthesis Kit, Fermentas, USA was used for cDNA synthesis. Total cDNA was prepared using random hexamer primer and all steps were according to the manufacturer's instructions. A typical reaction was performed as table 1 below.
(§4) RT-PCR analysis was carried out to examine the effect of new antifungal compounds on the expression level of genes involved in aliphatic amino acids biosynthesis. Three genes, ilv2, ilv3 and ilv5 were chosen for further analysis. RNA samples were isolated from the yeast cells exposed to sub-lethal or sub-inhibitory concentrations of new antifungal compounds and following a cDNA preparation. RT-PCR was performed using the gene specific primers.
(§5) RT-PCR products were visualized by electrophoresis on agarose gel and staining by ethidium bromide.
(§6) An overnight culture of yeast Saccharomyces cerevisiae BY4741 was prepared. […]

[3] = test system: ILV5; test: Semi-quantitative RT-PCR expression analysis of ilv5; format: cell-based, Saccharomyces cerevisiae BY4741; conditions: sub-lethal dose, 4 hours treatment; actin loading control
Protocol: as §1, §2, §3, §4, §5, §6

[4] = test system: yeast cells; test: Minimum Inhibitory Concentration (MIC) by micro serial dilution in 96 well plate; format: cell-based; conditions: Saccharomyces cerevisiae, 48 hours incubation
Protocol: Two fold serial dilutions of the compounds to be tested according to the embodiments herein were prepared in 96 well plates. 40 μl of appropriate test compound dilution was added to 160 μl of culture medium and the plate was incubated at 30° C. The culture medium is Yeast Peptone Dextrose agar (YPD) containing 10^3 yeast cells. The growth of yeast cells was monitored for 24 hr and 48 hr. Fluorouracil was used as a positive control and Dimethyl sulfoxide (DMSO-control solvent) was used as negative control. The minimum concentration of the test compound A which inhibits the fungal growth was defined as MIC. MIC level is defined as the minimum concentration of the compound which prevents the growth of pathogen. […]
After providing a serial dilution in the second row, 20 μl of the wells of the second row was transformed to the wells of first row and final volume of the wells of first row was changed to 100 μl. Finally, a surrounding part of each plate was covered with parafilm and was incubated under 37 degree of centigrade. the results were read out After 24 hours and 48 hours. […]
As a result of the growth of the fungus the medium is becoming cloudy. […] For defining the MIC, as well as the sample, positive control i.e. an approved antifungal drug like fluorouracil were measured. A solution control and a negative control i.e. only the fungal suspension were measured. […]

[5] = test system: ILV2; test: Semi-quantitative RT-PCR expression analysis of ilv2; format: cell-based, Saccharomyces cerevisiae BY4741; conditions: sub-lethal dose, 4 hours treatment; actin loading control
Protocol: as §1, §2, §3, §4, §5, §6

Row | SMILES | reversal property of the antifungal activity [1] | Expression level of ilv3, treated vs untreated cells [2] | Expression level of ilv5, treated vs untreated cells [3] | MIC [4] [µg/mL] | Expression level of ilv2, treated vs untreated cells [5] | Minimum Reversal Concentration (MRC), isoleucine ([1]; isoleucine added 0-200 μg/ml, compound at constant MIC level) [µg/mL] | Minimum Reversal Concentration (MRC), leucine ([1]; leucine added 0-200 μg/ml, compound at constant MIC level) [µg/mL] | Minimum Reversal Concentration (MRC), valine ([1]; valine added 0-200 μg/ml, compound at constant MIC level) [µg/mL]
1 | C#CC(=O)Oc1ccc2ccc(=O)oc2c1 [compound A, 2-oxo-2H-chromen-7-yl propiolate] | lacks the reversal property | – | – | – | – | – | – | –
2 | CCOC(=O)C#C/C=C/C(=O)OCC [compound B, diethyl-hex-2-en-4-yne-dioate] | – | unchanged | higher than that in the untreated cells | 1.5 (≈ 7.65 µM) | unchanged | 25 | 12.5 | 12.5
